Measurements reported in patent US9394327B1, “Nucleoside crystals, crystal nucleation and growth control with antifreeze proteins” (The Trustees of California State University, priority 2013, dated 2016).
Values belong to the compound of their own block, whether it stands above or below them.

Columns and labels:
[1] = Crystal growth of C by evaporation of aqueous solution, no seed crystals, with polypeptide additives; type: physicochemical
Description: (§1) We obtained the crystals of m^5U, C, and I, respectively, by evaporation of their aqueous solutions at room temperature. m^5U was known to be crystallized from aqueous ethanol solutions. […] On day 1, each sample vial was first added 600 μL of 400 mM m^5U solution. Then 20 μL of water or polypeptide solutions at certain concentrations were added into each vial. The final m^5U concentration was 387 mM in each vial. The additive/m^5U molar ratios (×10^−5) were varied from 0, 0.04, 0.4, 1.0, 1.2, 3.0, 4.0, 7.8, and 9.0. The vials were gently swirled after the addition and were left open in the air at the room temperature. At least three observations were recorded per day (every 8 hours) until the solutions in all the vials were dry. The experiments were repeated five times (Table 1).
(§2) In previous reports, crystals of C were prepared by evaporating of its aqueous ethanol solutions. Here we obtained C crystals by evaporation of its aqueous solution. […] By slowly evaporating its aqueous solution at 20° C., the pure α-form I crystals were obtained. The experimental procedures for C and I were similar to those described above for m^5U, while the concentrations of C and I solutions were 252 mM and 92 mM, respectively, in each sample vial on day 1 and the additive/C molar ratios (×10^−5) were varied from 0, 0.04, 0.4, 1.0, 1.2, 3.0, 4.0, 7.9, and 10.0 and the additive/I molar ratios (×10^−5) were varied from 0, 0.05, 0.5, 1.1, 2.2, 4.4, 8.1, 10.8, and 21.7. Photos of the vials were taken with a Canon EOS 30D camera during the crystallization process and when the process finished. Optical micrographs were taken under Nikon SMZ800 microscope with a Nikon Coolpix 5400 when the crystallization completed. […]
(§3) Powder X-ray diffraction (PXRD) data were collected at room temperature on a Rigaku Mini Flex II desktop diffractometer using Cu Kα radiation (30 kV, 15 mA) with a 2θ range of 5°-50°, a step size of 0.010°, and a step time of 2 s. […] The same amount of the resulting powders was then mounted and analyzed on a front loading sample holder.

[2] = Crystal growth of I by evaporation of aqueous solution, no seed crystals, with polypeptide additives; type: physicochemical
Description: as §1, §2, §3

[3] = copper sulfate pentahydrate aqueous solution, no additive
Description: To further test the effect of AFP on different types of compounds, we tested copper sulfate pentahydrate. The crystal grows from copper sulfate pentahydrate aqueous solutions at room temperature. Seventy milligrams of copper sulfate pentahydrate were dissolved in one milliliter of deionized, milli-Q water. The solution was filtered and left in the air for evaporation. In the presence AFPs, the conditions were all the same except DAFP-1 was added to the solution at the molar ratio of 10^−7 to copper sulfate.

[4] = Stability of m^5U crystal forms left in air at room temperature; type: physicochemical
From the text: The only previously known crystalline form of m^5U is its hemihydrate crystal, designated form I, which was crystallized exclusively by evaporation from the supersaturated aqueous solutions. By using DAFP-1 as an additive, remarkably, we were able to control the crystallization of m^5U and discover a new, less thermodynamically and kinetically preferred form, m^5U dihydrate crystal, designated form II. Forms I and II crystals are readily distinguished from each other by their morphology and stability. Form I crystals are needle-like in appearance (FIG. 16(a)) and there was no change (in the appearance, single crystal X-ray diffraction pattern, or DSC profile) of the crystals after being left in air at room temperature for more than 24 months. Form II crystals are block-shaped (FIG. 16(b)) and became white opaque powders/blocks in 2 months. The resulting solids were not suitable for single-crystal X-ray diffraction.

[5] = DSC thermodynamic stability analysis of m^5U forms; type: physicochemical
Description: Thermodynamic Stability Analysis. Both forms of m^5U were analyzed by DSC (FIG. 20). […] The first endotherm associated with water loss is at 139.07° C., whereas the second endotherm ascribed to the melting is at 185.65° C. […] Form II starts losing water and then melts at relatively lower temperatures than those of form I. The enthalpy profiles for both forms are compared in FIG. 21.
All experiments were performed with a DSC 1 (Mettler Toledo, Ohio). An indium standard (Mettler Toledo, Ohio) was used to calibrate the instrument. Samples weighed 3-4 mg and were hermetically encapsulated in standard aluminum sample pans with pierced lids to release any pressure build-up during the experiments. The samples were heated from 25 to 200° C. at a rate of 5° C./min.

[6] = Crystallization and crystallization kinetics of m^5U form I and form II from supersaturated solution; type: physicochemical; settings: for Day the crystallization completes / Day the crystallization starts: 595 mM m^5U, form I in absence of DAFP-1, form II in presence of DAFP-1 (additive/m^5U 5×10^−6); for Average crystal growth rate: estimated from mass increase of crystals, form I without, form II with DAFP-1; for Crystal morphology of the form: optical micrographs
Description: Supersaturated m^5U aqueous solutions (0.6 M) were made at 30° C. and filtered as soon as possible. Crystals were not grown after the temperature dropped to room temperature for a few days. On day 1, to each sample vial was added 600 μL of 0.6 M m^5U solution, and then 5 μL of water or DAFP solution were added into the vial. The vials were gently swirled after the additions. The resulting m^5U concentration was 595 mM in each vial and additive/m^5U molar ratios (×10^−6) were either 0 or 5. The sample vials were left open in the air at room temperature and three observations at least were recorded per day (every 8 hours) until the solutions in all the vials were dry. The above experiments were repeated five times. Optical micrographs were taken under Nikon SMZ800 microscope with a Nikon Coolpix 5400 when the crystallization completed. Under the above conditions, only form I crystalline m^5U was able to grow in the absence of DAFP-1; however, in the presence of DAFP-1, form II crystalline m^5U was grown exclusively. The kinetics of crystallization of m^5U form I and form II, respectively, was estimated based on the rate of the weight of the occurring crystals and the initial weight of m^5U in the specific vial. All the liquid in the vial was collected gently and the weight of the vial or the vial with crystals was measured. After the measurement, the collected liquid was put back into the vial and the crystallization continued. The weights were measured on an Ohaus Discovery semi-micro analytical balance at 9 am every day until the crystallization finished. The experiments were repeated on three vials and the average values were reported.

[7] = Crystal growth of m^5U by evaporation of aqueous solution, no seed crystals, with polypeptide additives; type: physicochemical
Description: as §1
All the resulting solids were sent to X-ray crystallography laboratory at the Beckman Institute of California Institute of Technology for analysis. The qualities of the solids for single crystal X-ray diffraction were determined (Table 1). […] The resolution of the data was improved compared with that of previously reported data of m^5U. The crystallographic data of m^5U have been deposited in the Cambridge Database (CCDC) and the CCDC deposit number is 835399.
Powder X-ray diffraction (PXRD) data were collected at room temperature on a Rigaku Mini Flex II desktop diffractometer using Cu Kα radiation (30 kV, 15 mA) with a 2θ range of 5°-50°, a step size of 0.010°, and a step time of 2 s. Samples were lightly ground by hand using a mortar and pestle. The same amount of the resulting powders was then mounted and analyzed on a front loading sample holder.
Different amounts of DAFP-1 were added directly to m^5U solution to determine the critical ratio of DAFP-1/m^5U.

[8] = Crystallization of trehalose dihydrate by diffusing ethanol, with DAFP-1; type: physicochemical; settings: without additive
From the text: Similarly, we crystallized trehalose dihydrate crystals by diffusing ethanol into the aqueous ethanol solution of trehalose directly. The protein:trehalose molar ratio (×10^−5) was 9.0 in FIG. 24(b) The crystals formed in the presence of DAFP-1 show a dramatic decrease in size as compared to the crystals obtained without additive.

[9] = optical micrographs, no seed crystals, alone or in the presence of the named additive

Crystal quality (suitableness of resulting solids for single crystal x-ray diffraction) ([1]; 252 mM C, polypeptide 0 μM): Yes | Induction time (day of first appearance of solid) ([1]; 252 mM C, polypeptide 0 μM, no seed crystals): 13 days | Morphology of final achieved C solids [1, 9]: needle-like
Compound: Nc1ccn([C@@H]2O[C@H](CO)[C@@H](O)[C@H]2O)c(=O)n1 [C, cytidine]

Crystal quality (suitableness of resulting solids for single crystal x-ray diffraction) ([2]; 92 mM I, polypeptide 0 μM): Yes | Induction time (day of first appearance of solid) ([2]; 92 mM I, polypeptide 0 μM, no seed crystals): 5 days | Morphology of final achieved I solids [2, 9]: hair-like
Compound: O=c1[nH]cnc2c1ncn2[C@@H]1O[C@H](CO)[C@@H](O)[C@H]1O [I, inosine]

Compound: O.O.O.O.O.O=S(=O)([O-])[O-].[Cu+2] [copper sulfate pentahydrate]
Appearance of the crystal (time) [3]: 7 days

Time crystals were stable in air ([4]; in air): at least 2 years | Time without change (appearance, single crystal X-ray diffraction pattern, DSC profile) of the crystals ([4]; left in air at room temperature): more than 24 months | Relative thermodynamic stability of the forms ([5]; DSC enthalpy profiles): more thermodynamically stable | DSC endotherm associated with water loss ([5]; heated 25 to 200° C. at 5° C./min): 139.07 °C | Day the crystallization completes [6]: 9 days | Day the crystallization starts [6]: 3 days | Average crystal growth rate [6]: 13.3 % per day | Crystal morphology of the form [6]: needle-like
Compound: Cc1cn([C@@H]2O[C@H](CO)[C@@H](O)[C@H]2O)c(=O)[nH]c1=O [form I, 5-methyluridine]

Time until crystals became white opaque powders/blocks ([4]; in air at room temperature): 2 months | Day the crystallization completes [6]: 15 days | Day the crystallization starts [6]: 6 days | Average crystal growth rate [6]: 10.5 % per day | Crystal morphology of the form [6]: block-shaped
Compound: Cc1cn([C@@H]2O[C@H](CO)[C@@H](O)[C@H]2O)c(=O)[nH]c1=O [form II, 5-methyluridine]

Crystal quality (suitableness of resulting solids for single crystal x-ray diffraction) ([7]; 387 mM m^5U, polypeptide 0 μM): Yes | Induction time (day of first appearance of solid) ([7]; 387 mM m^5U, polypeptide 0 μM, no seed crystals): 6 days | Morphology of finally achieved m^5U solids [7, 9]: Needle-like orthorhombic
Compound: Cc1cn([C@@H]2O[C@H](CO)[C@@H](O)[C@H]2O)c(=O)[nH]c1=O [m^5U, 5-methyluridine]

Size of trehalose dihydrate crystals [8]: 1-1.5 mm
Compound: OC[C@H]1O[C@H](O[C@H]2O[C@H](CO)[C@@H](O)[C@H](O)[C@H]2O)[C@H](O)[C@@H](O)[C@@H]1O [trehalose dihydrate]
